Measurements from patent US11439658B2, “Compositions and methods for suppressing MSUT2” (United States Government As Represented By The Department …, priority 2018, dated 2022).

Assays:
[1] = target: T1, recombinant GST-MSUT2 binding to synthetic poly(A) RNA (Homo sapiens, UniProt Q6PJT7); assay: MSUT2/poly(A) RNA AlphaScreen assay; conditions: dose validated hits of pilot AlphaScreen
T1 construct: fused on or other part: GST at the N-terminus (pGEX6P-1 vector)
T1 sequence (Q6PJT7 595-719 limits assumed): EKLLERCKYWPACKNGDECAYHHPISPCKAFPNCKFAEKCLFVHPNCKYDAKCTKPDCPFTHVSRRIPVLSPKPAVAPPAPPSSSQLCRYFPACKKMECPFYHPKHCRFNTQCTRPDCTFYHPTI
Description: To identify small-molecule inhibitors of the MSUT2 protein/poly(A) RNA interaction, a high-throughput AlphaScreen assay optimized for detecting recombinant GST-MSUT2 binding to synthetic poly(A) RNA. The MSUT2 AlphaScreen assay has been well optimized during its development for 384-well screening (z-score=0.96). Two high throughput AlphaScreens of 53,400 distinct small molecules have been completed. A multi-point dose analysis pilot screen of the Spectrum Collection was performed. […] Both the pilot screen and the screening approaches disclosed herein use the Quellos High-Throughput Screening Core at the University of Washington (UW).
Assay of inhibitor dose dependence. Hits identified in the pilot screen were validated by retesting resynthesized compounds over a wide concentration range. […] These hits will be validated by conducting a 14-point dose-response analysis with a drug concentration range from 100 μM down to 1.4 nM; the MSUT2/poly(A) RNA AlphaScreen Assay will be used to produce a readout. From this dose-response analysis, IC50 values will be calculated for dose-responsive hits. For the full scale screen 64 primary hits were identified and will be subject to dose validation as described for pilot screen compounds (and Ebselen, shown in FIG. 20).
The steps and set up for performing the ALPHA assay for MSUT2 binding to polyA are as follows: • 1. Dilutions are in assay buffer (1×PAMA final concentration). • 2. Scale is for 96 well assay in PE […] ½ area plate (total volume/well is 50 μL). • 3. Assays set up in low light conditions • 4. Add 20 μL of diluted donor bead (10 ug/mL) to well bringing well volume to 20 μL • 5. Add 10 μL diluted biotin RNA (15 nM)) bringing well volume to 30 μL • 6. Add 10 μL diluted GST-MSUT2 Protein (125 nM)) bringing well volume to 40 μL • 7. Incubate at room temp for 30 minutes in the dark • 8. Add 10 μl of diluted Acceptor bead (2.5 μg/mL) to well bringing well volume to 50 • 9. Incubate at room temp for 60 minutes in the dark • 10. Read Plate using standard AlphaAssay settings on Perkin Elmer EnSpire® Alpha microplate reader

[2] = test system: wild type or MSUT2 KO mice; assay: Kainic acid induced gliosis in mice; type: in vivo, mouse; conditions: hippocampi 3 days after single 25 mg/kg i.p.
Description: Shown are the hippocampi of wild type or MSUT2 KO mice 3 days after KA treatment (a single dose of 25 mg/kg KA administered i.p.). […] Scale bar=500 μm.

[3] = target: biotinylated poly(A)15 RNA; assay: Surface plasmon resonance (Biacore) binding to poly(A) RNA; conditions: poly(A)15, five protein concentrations 1-0.6 μM
Description: Surface plasmon pesonance. SPR experiments were conducted on a Biacore T200 using the Biotin Capture Kit Series S following the manufacturer's instructions (GE). Biotin capture reagent was applied to the sensor chip at a flow rate of 2 μl/minute for 300 seconds. 1 nM biotinylated RNA (BiotinTEG-AAAAAAAAAAAAAAA; SEQ ID NO: 25) was captured at a flow rate of 10 μl/minute for 180 seconds. Samples were flowed across the sensor chip at 50 μl/minute for 120 seconds and the chip was regenerated for 120 seconds at a flow rate of 10 μl/minute. KD values for binding and disassociation were calculated from the binding kinetics of each protein at five concentrations using the Biacore T200 Software v3.1 application package (GE; 1, 0.9, 0.8, 0.7, 0.6 μM).

O=S(=O)(O)c1cc(N=C=S)ccc1C=Cc1ccc(N=C=S)cc1S(=O)(=O)O [4,4′-Diisothiocyano-stilbene-2,2′ sulfonic acid]
IC50 [1]: 6.8 µM

O=c1c2ccccc2[se]n1-c1ccccc1 [Ebselen]
IC50 [1]: 1.6 µM

C=C(C)[C@H]1CN[C@H](C(=O)O)[C@H]1CC(=O)O [Kainic Acid]
gliotic response (astrocytosis, IHC for GFAP) [2]: obvious and strong gliotic response

COc1cc2c(cc1OC)-c1cc3ccc(OC)c(OC)c3c[n+]1CC2 [Palmatine]
IC50 [1]: 1.7 µM

B1: MSUT2: recombinant mammalian suppressor of tauopathy 2, poly(A) RNA binding protein (protein)
chain: MEIGTEISRKIRSAIKGKLQELGAYVDEELPDYIMVMVANKKSQDQMTEDLSLFLGNNTIRFTVWLHGVLDKLRSVTTEPSSLKSSDTNIFDSNVPSNKSNFSRGDERRHEAAVPPLAIPSARPEKRDSRVSTSSQESKTTNVRQTYDDGAATRLMSTVKPLREPAPSEDVIDIKPEPDDLIDEDLNFVQENPLSQKKPTVTLTYGSSRPSIEIYRPPASRNADSGVHLNRLQFQQQQNSIHAAKQLDMQSSWVYETGRLCEPEVLNSLEETYSPFFRNNSEKMSMEDENFRKRKLPVVSSVVKVKKFNHDGEEEEEDDDYGSRTGSISSSVSVPAKPERRPSLPPSKQANKNLILKAISEAQESVTKTTNYSTVPQKQTLPVAPRTRTSQEELLAEVVQGQSRTPRISPPIKEEETKGDSVEKNQGTQQRQLLSRLQIDPVMAETLQMSQDYYDMESMVHADTRSFILKKPKLSEEVVVAPNQESGMKTADSLRVLSGHLMQTRDLVQPDKPASPKFIVTLDGVPSPPGYMSDQEEDMCFEGMKPVNQTAASNKGLRGLLHPQQLHLLSRQLEDPNGSFSNAEMSELSVAQKPEKLLERCKYWPACKNGDECAYHHPISPCKAFPNCKFAEKCLFVHPNCKYDAKCTKPDCPFTHVSRRIPVLSPKPAVAPPAPPSSSQLCRYFPACKKMECPFYHPKHCRFNTQCTRPDCTFYHPTINVPPRHALKWIRPQTSE
Kd [3]: 0.06 ± 0.015 µM

B2: PABPN1: recombinant polyadenylate-binding nuclear protein 1 (protein, UniProt Q86U42 2-306, looked up)
Polyadenylate-binding protein …: AAAAAAAAAAGAAGGRGSGPGRRRHLVPGAGGEAGEGAPGGAGDYGNGLESEELEPEELLLEPEPEPEPEEEPPRPRAPPGAPGPGPGSGAPGSQEEEEEPGLVEGDPGDGAIEDPELEAIKARVREMEEEAEKLKELQNEVEKQMNMSPPPGNAGPVIMSIEEKMEADARSIYVGNVDYGATAEELEAHFHGCGSVNRVTILCDKFSGHPKGFAYIEFSDKESVRTSLALDESLFRGRQIKVIPKRTNRPGISTTDRGFPRARYRARTTNYNSSRSRFYSGFNSRPRGRVYRGRARATSWYSPY
Kd [3]: 0.237 ± 0.021 µM
